In the assay the target is T1, Bcl-2 protein (Recombinant Human Bcl-2 Protein) (Homo sapiens, UniProt P10415).
T1 construct: purchased Novus Biologicals NBP2-34889
The assay is described as follows: AS-MS evaluation of binding of the Example 4 mixture library (1200 compounds/well) to Bcl-2, ASMS ratio (%). As for the experimental part: DMSO solutions (prepared into approximately 0.58 mM based on calculation from the average molecular weight of each mixture) of 12 types of mixtures that could each contain 100 compounds, i.e., mixAI-B4J-01, mixAI-B1M-01, mixAI-B1K-01, mixAI-BIO-01, mixAI-B1A-01, mixAI-B3A-01, mixAI-B21-01, mixAI-B2L-01, mixAI-B2N-01, mixAI-B2A-01, mixAI-B2Q-01, and mixAI-B2R-01, shown in Table AI-03-B4J-01, Table AI-03-B1M-01, Table AI-03-B1K-01, Table AI-03-B10-01, Table AI-03-B1A-01, Table AI-03-B3A-01, Table AI-03-B21-01, Table AI-03-B2L-01, Table AI-03-B2N-01, Table AI-03-B2A-01, Table AI-03-B2Q-01, and Table AI-03-B2R-01 described in Example 4, were respectively dispensed to a total of 12 wells of MICROPLATE, 96-well, PP, V-BOTTOM (Greiner Bio-One International GmbH, 651201). 70 nL each from the 12 wells was collected into any one well using LABCYTE ECHO® 555 acoustic dispensing system (Beckman Coulter, Inc.) to prepare a sample solution in a mixed state of 1200 compounds (the presence of 1152 compounds was already identified when the mixtures were prepared in Example 4). Further, Bcl-2 protein (Novus Biologicals, NBP2-34889, Recombinant Human Bcl-2 Protein, Lot E60145051) (19.2 μL) prepared at 20.9 μM in advance using a Tris-HCl buffer (25 mM Tris-HCl, pH 7.4, 150 mM NaCl, 0.025% Tween-20, and 1 mM DTT) was added to the well containing the dispensed 1200 compounds (the presence of 1152 compounds was already identified when the mixtures were prepared in Example 4) (final compound concentration: 20 nM, final Bcl-2 concentration: 20 μM), and the plate was incubated at 23° C. for 1 hour in the dark. Subsequently, 200 μL of an assay buffer (25 mM Tris-HCl, pH 7.4, 150 mM NaCl, 0.025% Tween-20, and 1 mM DTT) was centrifuged three times at 2000×G at 4° C. for 2 minutes using 96-well MacroSpin column, P-2 Material (Harvard Bioscience, Inc., 74-5655) that had been allowed to swell to condition the 96-well MacroSpin column. Subsequently, 20 μL of the sample thus incubated was added to the 96-well MacroSpin column, P-2 Material after the completion of conditioning, and SEC treatment was performed by centrifugation at 2000×G for 2 minutes. 32 μL of a 1:1 mixed solution of acetonitrile and methanol (LC/MS grade, FUJIFILM Wako Pure Chemical Corp.) was added to a flow-through liquid from SEC, and the mixture was centrifuged at 1800×G at 4° C. for 5 minutes. The supernatant was used as analysis sample ASMS (A). By a similar operation, a sample prepared at 1200 compounds/well and supplemented with only a Tris-HCl buffer containing no Bcl-2 protein was incubated under the same conditions as above, and the same organic solvent as above was added thereto without 96-well MacroSpin column treatment. A supernatant obtained by a centrifugation operation was used as STD (B). Next, by a similar operation, a sample prepared at 1200 compounds/well and supplemented with only a Tris-HCl buffer containing no Bcl-2 protein was incubated under the same conditions as above and treated with 96-well MacroSpin column in the same manner as above, and the same organic solvent as above was added thereto. A supernatant obtained by a centrifugation operation was used as BK (C). These samples were measured by reverse-phase LC/MS.
Then, the samples A, B and C were analyzed for the 1200 compounds using TraceFinder 5.1 (Thermo Fisher Scientific Inc.) and CHANCE Software (in-house), and an ASMS ratio (%) was calculated according to the following expression.
Although m/z of the MS peaks was confirmed down to four decimal places, 0 at the decimal level may be omitted in the description in Table AJ-01. For example, “587.0000” is also referred to as “587”, “587.1000” is also referred to as “587.1”, “587.1200” is also referred to as “587.12”, and “587.1230” is also referred to as “587.123”.

[1] abbreviates: replicate n = 1, mixture library, value belongs to the MS peak assigned to the compound.
Where [2] appears, read: replicate n = 2, mixture library, value belongs to the MS peak assigned to the compound.
Where [3] appears, read: AS-MS, Example 4 mixture library, Bcl-2, replicate n = 1.
Setting [4] is: AS-MS, Example 4 mixture library, Bcl-2, replicate n = 2.
[5] abbreviates: AS-MS, mixture of 1200 compounds/well, Bcl-2 protein, replicate n = 1.
The mark [6] stands for this setting: AS-MS, mixture of 1200 compounds/well, Bcl-2 protein, replicate n = 2.

SMILES strings stand for the structures.

T1 sequence (P10415 whole entry): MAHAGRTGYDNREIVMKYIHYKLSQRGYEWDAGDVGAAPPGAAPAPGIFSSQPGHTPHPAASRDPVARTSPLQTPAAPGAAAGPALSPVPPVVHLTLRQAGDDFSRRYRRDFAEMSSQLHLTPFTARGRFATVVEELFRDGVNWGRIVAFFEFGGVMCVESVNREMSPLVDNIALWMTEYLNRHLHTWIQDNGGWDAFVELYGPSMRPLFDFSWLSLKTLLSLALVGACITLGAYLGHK

For `CCOc1cccc(-c2csc(C(=O)N3CCN(c4ccc(C(=O)NS(=O)(=O)C(C)(C)C)nn4)CC3)c2)c1` [Compound B2L001-01], the “ASMS ratio (%) n = 1” value under setting [1] is listed as −67.5%. Moreover, the “ASMS ratio (%) n = 2” value under setting [2] amounted to 0.0%.

Turning to `CCOc1cccc(C#Cc2ccccc2CN2CCN(c3ccc(C(=O)NS(C)(=O)=O)nn3)CC2)c1` [Compound B2I095-01, 6-[4-[[2-[2-(3-Ethoxyphenyl)ethynyl]phenyl]methyl]piperazin-1-yl]-N-methylsulfonylpyridazine-3-carboxamide], the “ASMS ratio (%) n = 1” value under setting [1] came out at 0.0%. Moreover, the “ASMS ratio (%) n = 2” value under setting [2] amounted to 0.0%.

Turning to `CCOc1cncc(-c2csc(C(=O)N3CCN(c4ccc(C(=O)NS(=O)(=O)c5ccc(NCCSc6ccccc6)c(C(F)(F)F)c5)nn4)CC3)c2)c1` [Compound B2R002-01, 6-[4-[4-(5-Ethoxypyridin-3-yl)thiophene-2-carbonyl]piperazin-1-yl]-N-[4-(2-phenylsulfanylethylamino)-3-(trifluoromethyl)phenyl]sulfonylpyridazine-3-carboxamide], the “ASMS ratio (%) n = 1” value under setting [3] is reported as 0.0%. Moreover, under setting [4], the “ASMS ratio (%) n = 2” value stood at 0.0%.

Consider `CCCNC(=O)c1ccc(N2CCN(C(=O)c3ccc(-c4cncc(OCC)c4)c(F)c3)CC2)cc1` [Compound B1M028-01], for which, under setting [5], the “ASMS ratio (%) n = 1” value amounted to 0.0%. For the same compound, the “ASMS ratio (%) n = 2” value under setting [6] is reported as 0.0%.

As to `CCCNC(=O)c1ccc(N2CCN(C(=O)c3cc(C#Cc4cncc(OCC)c4)cc(C(F)(F)F)c3)CC2)nn1` [Compound B1M020-01], under setting [5], the “ASMS ratio (%) n = 1” value was found to be 0.0%. The “ASMS ratio (%) n = 2” value under setting [6] is recorded as 0.0%.

Take `CCOc1cncc(-c2csc(CN3CCN(c4ccc(C(=O)NS(=O)(=O)C(C)(C)C)nn4)CC3)c2)c1` [Compound B2L094-01, N-tert-Butylsulfonyl-6-[4-[[4-(5-ethoxypyridin-3-yl)thiophen-2-yl]methyl]piperazin-1-yl]pyridazine-3-carboxamide]: the “ASMS ratio (%) n = 1” value under setting [3] is 0.2%. Moreover, the “ASMS ratio (%) n = 2” value under setting [4] is on record as 1.8%.

For the compound `CCOc1cncc(-c2cc(CN3CCN(c4ccc(C(=O)NS(=O)(=O)C(C)(C)C)cc4)CC3)cc(C(F)(F)F)c2)c1` [Compound B2L062-01, N-tert-Butylsulfonyl-4-[4-[[3-(5-ethoxypyridin-3-yl)-5-(trifluoromethyl)phenyl]methyl]piperazin-1-yl]benzamide], under setting [1], the “ASMS ratio (%) n = 1” value was determined as 0.0%. For the same compound, the “ASMS ratio (%) n = 2” value under setting [2] is given as 0.0%.

With `CCOc1cccc(-c2ccc(C(C)N3CCN(c4ccc(C(=O)NS(C)(=O)=O)cc4)CC3)cc2)c1` (stereo not shown) [Compound B2I097-01, 4-[4-[1-[4-(3-Ethoxyphenyl)phenyl]ethyl]piperazin-1-yl]-N-methylsulfonylbenzamide], the “ASMS ratio (%) n = 1” value under setting [1] is listed as 0.8%. In addition, the “ASMS ratio (%) n = 2” value under setting [2] is on record as 1.4%.

As for `CCOc1cccc(-c2cc(CN3CCN(c4ccc(C(=O)NS(=O)(=O)c5ccc(NCCSc6ccccc6)c(C(F)(F)F)c5)cc4)CC3)cc(OC(C)C)c2)c1` [Compound B2R057-01, 4-[4-[[3-(3-Ethoxyphenyl)-5-propan-2-yloxyphenyl]methyl]piperazin-1-yl]-N-[4-(2-phenylsulfanylethylamino)-3-(trifluoromethyl)phenyl]sulfonylbenzamide], under setting [3], the “ASMS ratio (%) n = 1” value is reported as 5.7%. Under setting [4], the “ASMS ratio (%) n = 2” value is given as −5.1%.

In the case of `CCOc1cccc(-c2cc(CN3CCN(c4ccc(C(=O)NS(C)(=O)=O)cc4)CC3)cc(OC(C)C)c2)c1` [Compound B2I057-01, 4-[4-[[3-(3-Ethoxyphenyl)-5-propan-2-yloxyphenyl]methyl]piperazin-1-yl]-N-methylsulfonylbenzamide], the “ASMS ratio (%) n = 1” value under setting [1] is 0.0%. Besides, the “ASMS ratio (%) n = 2” value under setting [2] was determined as 0.0%.

On to `CCOc1cccc(-c2cc(C(=O)N3CCN(c4ccc(C(=O)NS(=O)(=O)C(C)(C)C)nn4)CC3)cc(C(C)(C)C)c2)c1` [Compound B2L015-01, 6-[4-[3-tert-Butyl-5-(3-ethoxyphenyl)benzoyl]piperazin-1-yl]-N-tert-butylsulfonylpyridazine-3-carboxamide], for which, under setting [1], the “ASMS ratio (%) n = 1” value was 0.0%. In addition, the “ASMS ratio (%) n = 2” value under setting [2] is given as 0.0%.

With `CCCNC(=O)c1ccc(N2CCN(C(C)c3ccc(-c4cccc(OCC)c4)cc3)CC2)cc1` (stereo not shown) [Compound B1M097-01], under setting [5], the “ASMS ratio (%) n = 1” value is given as 1.1%. Also, the “ASMS ratio (%) n = 2” value under setting [6] was determined as 0.3%.

As to `CCOc1cncc(-c2cc(CN3CCN(c4ccc(C(=O)NS(C)(=O)=O)nn4)CC3)cc(OC(C)C)c2)c1` [Compound B2I084-01, 6-[4-[[3-(5-Ethoxypyridin-3-yl)-5-propan-2-yloxyphenyl]methyl]piperazin-1-yl]-N-methylsulfonylpyridazine-3-carboxamide], the “ASMS ratio (%) n = 1” value under setting [1] is given as −0.9%. Besides, under setting [2], the “ASMS ratio (%) n = 2” value is −1.5%.

On to `CCOc1cncc(-c2cc(CN3CCN(c4ccc(C(=O)NS(C)(=O)=O)cc4)CC3)cc(C(F)(F)F)c2)c1` [Compound B2I062-01, 4-[4-[[3-(5-Ethoxypyridin-3-yl)-5-(trifluoromethyl)phenyl]methyl]piperazin-1-yl]-N-methylsulfonylbenzamide], for which, under setting [1], the “ASMS ratio (%) n = 1” value stood at 0.0%. In addition, under setting [2], the “ASMS ratio (%) n = 2” value stood at 0.0%.

With `CCOc1cncc(-c2cc(CN3CCN(c4ccc(C(=O)NS(=O)(=O)C(C)(C)C)cc4)CC3)cc(OCC)c2)c1` [Compound B2L056-01], the “ASMS ratio (%) n = 1” value under setting [1] was 0.0%. Under setting [2], the “ASMS ratio (%) n = 2” value is given as 0.0%.

With `CCOc1cncc(-c2cc(C(=O)N3CCN(c4ccc(C(=O)NS(=O)(=O)CCC(F)(F)F)cc4)CC3)cc(C(C)(C)C)c2)c1` [Compound B2N038-01, 4-[4-[3-tert-Butyl-5-(5-ethoxypyridin-3-yl)benzoyl]piperazin-1-yl]-N-(3,3,3-trifluoropropylsulfonyl)benzamide], the “ASMS ratio (%) n = 1” value under setting [3] was found to be 0.0%. In addition, the “ASMS ratio (%) n = 2” value under setting [4] came out at 0.0%.

For `CCCNC(=O)c1ccc(N2CCN(Cc3cc(-c4cccc(OCC)c4)cs3)CC2)nn1` [Compound B1M093-01], the “ASMS ratio (%) n = 1” value under setting [5] is 0.0%. Besides, the “ASMS ratio (%) n = 2” value under setting [6] stood at 0.0%.

As for `CCOc1cncc(-c2ccc(C(C)N3CCN(c4ccc(C(=O)NS(=O)(=O)CCC(F)(F)F)cc4)CC3)c(F)c2)c1` (stereo not shown) [Compound B2N100-01, 4-[4-[1-[4-(5-Ethoxypyridin-3-yl)-2-fluorophenyl]ethyl]piperazin-1-yl]-N-(3,3,3-trifluoropropylsulfonyl)benzamide], under setting [3], the “ASMS ratio (%) n = 1” value was 0.0%. The “ASMS ratio (%) n = 2” value under setting [4] stood at 0.0%.

Take `CCOc1cccc(-c2csc(C(=O)N3CCN(c4ccc(C(=O)NS(=O)(=O)CCC(F)(F)F)nn4)CC3)c2)c1` [Compound B2N001-01, 6-[4-[4-(3-Ethoxyphenyl)thiophene-2-carbonyl]piperazin-1-yl]-N-(3,3,3-trifluoropropylsulfonyl)pyridazine-3-carboxamide]: under setting [4], the “ASMS ratio (%) n = 2” value was 0.0%.

Source of the values: patent publication US20250154686A1, “COMPOUND LIBRARY” (CHUGAI SEIYAKU KABUSHIKI KAISHA, priority 2021, published 2025).
